From patent US8173652B2, “Isoxazole-isoxazoles and isoxazole-isothiazoles” (Hoffmann-La Roche Inc., priority 2009, dated 2012) come the findings set out here.

SMILES strings stand for the structures.

The target in this test is T1, human GABA A receptor α5β3γ2 (Homo sapiens, UniProt P18507+P31644).
T1 construct: expressed in transfected cells; host or cells: HEK293 (transiently transfected), membrane preparation
Description: [3H]flumazenil competition binding assay, human GABA A α5 receptor. The following applies: human α5β3γ2 receptors transiently transfected in HEK293 cells; displacement of [3H]flumazenil 0.5 nM; 1 hour at 4° C.; means of two determinations; read-out: hKi GABA A α5. The method, then: Membrane Preparation and Binding Assay
The affinity of compounds at GABA A receptor subtypes was measured by competition for [3H]flumazenil (85 Ci/mmol; Roche) binding to HEK293 cells expressing rat (stably transfected) or human (transiently transfected) receptors of composition α1β3γ2, α2β3γ2, α3β3γ2 and α5β3γ2.
Cell pellets were suspended in Krebs-tris buffer (4.8 mM KCl, 1.2 mM CaCl2, 1.2 mM MgCl2, 120 mM NaCl, 15 mM Tris; pH 7.5; binding assay buffer), homogenized by polytron for ca. 20 sec on ice and centrifuged for 60 min at 4° C. (50000 g; Sorvall, rotor: SM24=20000 rpm). The cell pellets were re-suspended in Krebs-tris buffer and homogenized by polytron for ca. 15 sec on ice. Protein was measured (Bradford method, Bio-Rad) and aliquots of 1 mL were prepared and stored at −80° C.
Radioligand binding assays were carried out in a volume of […] (96-well plates) which contained […] of cell membranes, [^3H]flumazenil at a concentration of 1 nM for α1, α2 and α3 subunits and 0.5 nM for α5 subunits and the test compound in the range of […]. Nonspecific binding was defined by 10^−5 M diazepam and typically represented less than 5% of the total binding. Assays were incubated to equilibrium for 1 hour at 4° C. and harvested onto GF/C uni-filters (Packard) by filtration using a Packard harvester and washing with ice-cold wash buffer (50 mM Tris; pH 7.5). After drying, filter-retained radioactivity was detected by liquid scintillation counting. Ki values were calculated using Excel-Fit (Microsoft) and are the means of two determinations.
On to `CCCCc1noc(C)c1COc1cc(C(=O)N[C@@H](C)CO)on1` [Example 26, 3-(3-Butyl-5-methyl-isoxazol-4-ylmethoxy)-isoxazole-5-carboxylic acid ((S)-2-hydroxy-1-methyl-ethyl)-amide], for which the Ki came to 22.7 nM.

As to `CCCCc1noc(C)c1COc1cc(C(=O)NCCO)on1` [Example 24, 3-(3-Butyl-5-methyl-isoxazol-4-ylmethoxy)-isoxazole-5-carboxylic acid (2-hydroxy-ethyl)-amide], the Ki came out at 22.2 nM.

As for `Cc1onc(-c2ccccn2)c1COc1cc(C(=O)NC2CCOC2)on1` (stereo not drawn) [Example 16, 3-(5-Methyl-3-pyridin-2-yl-isoxazol-4-ylmethoxy)-isoxazole-5-carboxylic acid (tetrahydro-furan-3-yl)-amide], the Ki was found to be 1.4 nM.

With `Cc1onc(-c2ccccc2)c1COc1cc(C(=O)NCCO)on1` [Example 5, 3-(5-Methyl-3-phenyl-isoxazol-4-ylmethoxy)-isoxazole-5-carboxylic acid (2-hydroxy-ethyl)-amide], the Ki is 8 nM.

As to `CC(=O)OCCNC(=O)c1cc(OCc2c(-c3ccccc3)noc2C)no1` [Example 7, Acetic acid 2-{[3-(5-methyl-3-phenyl-isoxazol-4-ylmethoxy)-isoxazole-5-carbonyl]-amino}-ethyl ester], the Ki amounted to 16.8 nM.

As to `Cc1onc(-c2ccccn2)c1COc1cc(C(=O)NN2CCCCC2)on1` [Example 20, 3-(5-Methyl-3-pyridin-2-yl-isoxazol-4-ylmethoxy)-isoxazole-5-carboxylic acid piperidin-1-ylamide], the Ki was determined as 6 nM.

Turning to `Cc1onc(-c2ccccc2)c1COc1cc(C(=O)NN2CCCC2)on1` [Example 12, 3-(5-Methyl-3-phenyl-isoxazol-4-ylmethoxy)-isoxazole-5-carboxylic acid pyrrolidin-1-yl-amide], the Ki turned out to be 18.5 nM.

In the case of `Cc1onc(-c2ccc(F)cn2)c1COc1cc(C(=O)NC2CCOC2)sn1` (stereo not drawn) [Example 40, 3-[3-(5-Fluoro-pyridin-2-yl)-5-methyl-isoxazol-4-ylmethoxy]-isothiazole-5-carboxylic acid (tetrahydro-furan-3-yl)-amide], the Ki worked out at 3.8 nM.

In the case of `Cc1onc(-c2ccccc2)c1COc1cc(C(=O)NCCO)sn1` [Example 35, 3-(5-Methyl-3-phenyl-isoxazol-4-ylmethoxy)-isothiazole-5-carboxylic acid (2-hydroxy-ethyl)-amide], the Ki was determined as 35 nM.

Take `Cc1onc(-c2ccccc2)c1COc1cc(C(=O)NN2CCOCC2)on1` [Example 13, 3-(5-Methyl-3-phenyl-isoxazol-4-ylmethoxy)-isoxazole-5-carboxylic acid morpholin-4-ylamide]: the Ki was determined as 2.8 nM.

Take `Cc1onc(-c2ccc(F)cn2)c1COc1cc(C(=O)NC(C)C)sn1` [Example 38, 3-[3-(5-Fluoro-pyridin-2-yl)-5-methyl-isoxazol-4-ylmethoxy]-isothiazole-5-carboxylic acid isopropylamide]: the Ki was 11.8 nM.

For the compound `CCCCc1noc(C)c1COc1cc(C(=O)NC2CCOC2)sn1` (stereo not drawn) [Example 41, 3-(3-Butyl-5-methyl-isoxazol-4-ylmethoxy)-isothiazole-5-carboxylic acid (tetrahydro-furan-3-yl)-amide], the Ki worked out at 28.9 nM.
